The values below come from patent US5081131A, “Omega-((hetero)alkyl)benz(cd)-indol-2-amines” (American Cyanamid Company, priority 1988, dated 1992).

Where a name gives a salt, the structure may show the parent alone.

The test system of test [1] is thevetin-induced arrhythmia in guinea pigs. Description: Thevetin (cardiac glycoside)-induced arrhythmia in guinea pigs. It counts as in vivo, guinea pig. As to conditions: for Time (Minutes) Before Induced Arrhythmia: saline 22.91±0.5 minutes. As for the experimental part:
Male guinea pigs, weighing 300-500 g each, from Summit View Farms, Belvidere, N.J., were anesthetized by intraperitoneal adminstration of urethan at 1500 mg/kg. The animals were then restrained in a supine position. Electrocardiogram leads were attached to the four limbs and Lead II of the electrocardiogram was monitored.
The neck region was exposed and the jugular vein was cannulated. The test compounds were dissolved in saline and administered intravenously at the indicated doses, via a cannula which was then flushed with saline. Five minutes after the test compound was administered, thevetin dissolved in saline was administered by infusion through a cannula at a dose of 0.1 mg/kg/minute in a volume of 0.1 ml. The time until the P wave of the electrocardiogram disappeared was determined.

Test [2] addresses T1, thromboxane synthetase enzyme (Rattus norvegicus, UniProt P49430).
T1 construct: endogenous in cells; host or cells: washed platelets from arterial blood of male Okamoto-Aoki spontaneously hypertensive rats (animals from Taconic Farms, Germantown, N.Y.)
T1 sequence (P49430 1-533): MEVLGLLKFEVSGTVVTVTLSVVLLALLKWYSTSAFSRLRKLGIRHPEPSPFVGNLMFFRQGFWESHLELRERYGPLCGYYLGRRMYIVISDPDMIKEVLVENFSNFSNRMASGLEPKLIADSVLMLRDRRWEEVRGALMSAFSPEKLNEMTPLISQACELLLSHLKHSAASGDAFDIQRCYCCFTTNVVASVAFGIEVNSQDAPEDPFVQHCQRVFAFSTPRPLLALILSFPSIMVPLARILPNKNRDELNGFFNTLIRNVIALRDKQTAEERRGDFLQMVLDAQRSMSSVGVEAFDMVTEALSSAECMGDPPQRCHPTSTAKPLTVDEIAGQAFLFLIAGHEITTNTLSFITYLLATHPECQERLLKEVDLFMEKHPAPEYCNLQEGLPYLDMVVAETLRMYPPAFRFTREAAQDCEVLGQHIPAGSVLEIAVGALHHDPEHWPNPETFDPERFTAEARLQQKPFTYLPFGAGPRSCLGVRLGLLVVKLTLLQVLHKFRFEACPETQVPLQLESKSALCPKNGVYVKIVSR
As to the kind of experiment: Thromboxane synthetase enzyme inhibition (TXB2 formation in washed platelets, RIA). It counts as cell-based, spontaneously hypertensive rat. Conditions: 1×10^-4 Molar, SHR platelets, 10 min at 37° C.; for inhibition at 100 µM: read-out: % Inhibition (Thromboxane Synthetase Enzyme Inhibition). Here is the method: The blood was diluted with 3 ml cold saline and centrifuged at room temperature for 15 min at 468×g. The platelet rich plasma (PRP) was separated. The platelets were isolated by certrifuging the PRP for 10 minutes at 1060×g and washed in 4 ml cold oxygenated Krebs phosphate buffer, pH 7.4. The chilled platelets recovered from centrifuging at 800×g for 10 minutes were resuspended in oxygenated Krebs phosphate buffer and diluted to contain 4.0-6.0×10^4 platelets/micro-liters. The inhibition of TX formation was studied by determining the concentration of thromboxane B2 (TXB2), the stable hydrolysis product of TXA2. Assay samples prepared on ice, contained 200 micro-liters platelet suspension, 50 micro-liters saline, and 50 micro-liters […] (saline) or drug under study. The test drug (0.003 mole) was dissolved in 5 ml of saline. […] The assay samples were incubated for 10 minutes at 37° C. in a metabolic shaker at about 60 rpm. The reaction was terminated by immersing the tubes in an ice bath and adding 50 micro-liters of 0.5M citric acid. The samples were centrifuged for 10 minutes at 2000 rpm at 4° C., and the supernatants were decanted.

In test [3] the test system is spontaneously hypertensive rats. As to the kind of experiment: Hypotensive activity in spontaneously hypertensive rats (MABP). Conditions: SHR, gavage, two doses of 10 mg/kg or less 24 h apart, MABP at 28 h; average baseline 160±1.5 mm Hg. It counts as in vivo, rat (Okamoto strain). In outline:
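Male 16-week Okamoto spontaneously hypertensive rats dosed by gavage in 2% starch at 10 mg/kg or less with 0.9% NaCl loading 25 ml/kg; identical dose without saline given 24 hours later. Mean arterial blood pressure measured 28 hours after first dose; 1 to 4 rats per compound.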

The mark [4] stands for this setting: intravenous doses as high as 20 mg/kg.

`CC(C)NC[C@H](O)COc1cccc2ccccc12` (racemic) [Propanolol, reference compound]: in test [1] (intravenous dose of 2 mg/kg), the “activity in thevetin-induced arrhythmia test” value (shortened to “activity”) is on record as “active” and the “time protected before arrhythmia occurred” value stood at 47.0 ± 4.1 min.
Regarding `O=C(CNC1=Nc2cccc3cccc1c23)NCCCn1ccnc1` [2-(Benz(cd)indol-2-ylamino)-N-(3-(1H-imidazol-1-yl)propyl)acetamide], in test [2], the inhibition at 100 µM came to 100%. The “Time (Minutes) Before Induced Arrhythmia” value in test [1] (IV dose 25 mg/kg) came to 33 min.
With `CC(CCNC1=Nc2c(Cl)cc(Cl)c3cccc1c23)n1ccnc1` (stereo not shown) [6,8-Dichloro-N-(3-(1H-imidazol-1-yl)butyl)benz(cd)indol-2-amine], the “Avg. MABP in mm Hg (No. of Rats)” value in test [3] is reported as 102 mm Hg. In addition, in test [1] (IV dose 20 mg/kg), the “Time (Minutes) Before Induced Arrhythmia” value turned out to be 32 min.
For the molecule `Clc1cc(Cl)c2cccc3c2c1N=C3NCCCCCn1ccnc1` [6,8-Dichloro-N-(5-(1H-imidazol-1-yl)pentyl)benz(cd)indol-2-amine], in test [3], the “Avg. MABP in mm Hg (No. of Rats)” value was 119 mm Hg. For the same molecule, the “Time (Minutes) Before Induced Arrhythmia” value in test [1] (IV dose 20 mg/kg) is 33.4 min.
For `CC(CCNC1=Nc2ccc(Br)c3cccc1c23)n1ccnc1` (stereo not shown) [6-Bromo-N-(3-(1H-imidazol-1-yl)butyl)benz(cd)indol-2-amine], the inhibition at 100 µM in test [2] amounted to 100%. For the same molecule, in test [3], the “Avg. MABP in mm Hg (No. of Rats)” value is given as 120 mm Hg. Besides, in test [1] (IV dose 30 mg/kg), the “Time (Minutes) Before Induced Arrhythmia” value was 34.7 min.
In the case of `Brc1ccc2c3c(cccc13)C(NCCCCCn1ccnc1)=N2` [6-Bromo-N-(5-(1H-imidazol-1-yl)pentyl)benz(cd)indol-2-amine], the inhibition at 100 µM in test [2] is 97%. Also, in test [3], the “Avg. MABP in mm Hg (No. of Rats)” value was found to be 118 mm Hg. Further, in test [1] (IV dose 20 mg/kg), the “Time (Minutes) Before Induced Arrhythmia” value worked out at 37 min.
Turning to `Clc1ccc2c3c(cccc13)C(NCCCCn1ccnc1)=N2.O=C(O)/C=C/C(=O)O` [6-Chloro-N-(4-(1H-imidazol-1-yl)butyl)benz(cd)indol-2-amine, fumarate], the inhibition at 100 µM in test [2] turned out to be 100%. Besides, in test [3], the “Avg. MABP in mm Hg (No. of Rats)” value is 115 mm Hg. In addition, the “Time (Minutes) Before Induced Arrhythmia” value in test [1] (IV dose 10 mg/kg) came to 31.5 min.
`C(=C\Cn1ccnc1)/CNC1=Nc2cccc3cccc1c23` [(E)-N-(4-(1H-imidazol-1-yl)-2-butenyl)benz(cd)indol-2-amine, hydriodide]: the inhibition at 100 µM in test [2] worked out at 100%. The “Time (Minutes) Before Induced Arrhythmia” value in test [1] (IV dose 10 mg/kg) worked out at 34.3 min.
Turning to `O=C(O)c1ccc(OCCn2ccnc2)cc1` [Dazoxiben hydrochloride, 4-(2-(1H-imidazol-l-yl)ethoxy)benzoic acid, monohydrochloride, reference compound], in test [1] (setting [4]), the “activity” value was “inactive” and the “time before arrhythmia occurred” value amounted to 22.2 ± 1.9 min.
As to `CC(CCNC1=Nc2ccc(S(=O)(=O)N(C)C)c3cccc1c23)n1ccnc1` (stereo not shown) [N,N-Dimethyl-2-((3-(1H-imidazol-1-yl)butyl)amino)benz(cd)indol-6-sulfonamide], the inhibition at 100 µM in test [2] turned out to be 99%. The “Time (Minutes) Before Induced Arrhythmia” value in test [1] (IV dose 10 mg/kg) is 33.6 min.
Take `CN(C)S(=O)(=O)c1ccc2c3c(cccc13)C(NCCCn1ccnc1)=N2` [N,N-Dimethyl-2-((3-(1H-imidazol-1-yl)propyl)amino)benz(cd)indol-6-sulfonamide]: the inhibition at 100 µM in test [2] is 100%. Besides, the “Time (Minutes) Before Induced Arrhythmia” value in test [1] (IV dose 20 mg/kg) is 33.4 min.
In the case of `c1cncc(CCNC2=Nc3cccc4cccc2c34)c1` [N-(2-(3-Pyridinyl)ethyl)benz(cd)indol-2-amine sesqui-fumarate], in test [2], the inhibition at 100 µM turned out to be 99%. Also, the “Avg. MABP in mm Hg (No. of Rats)” value in test [3] amounted to 126 mm Hg. Further, in test [1] (IV dose 20 mg/kg), the “Time (Minutes) Before Induced Arrhythmia” value is 37 min.
For `O=C(O)/C=C/C(=O)O.c1ccc(C(CCn2ccnc2)NC2=Nc3cccc4cccc2c34)cc1` (stereo not shown) [N-(3-(1H-imidazol-1-yl)-1-phenylpropyl)benz(cd)indol-2-amine, fumarate], the inhibition at 100 µM in test [2] worked out at 100%. For the same molecule, the “Time (Minutes) Before Induced Arrhythmia” value in test [1] (IV dose 30 mg/kg) stood at 34 min.
As for `c1ccc(C(CNC2=Nc3cccc4cccc2c34)(Cn2ccnc2)c2ccccc2)cc1` [N-(3-(1H-imidazol-1-yl)-2,2-diphenylpropyl)benz(cd)indol-2-amine], the inhibition at 100 µM in test [2] was found to be 75%. In addition, the “Avg. MABP in mm Hg (No. of Rats)” value in test [3] turned out to be 127 mm Hg. Besides, in test [1] (IV dose 10 mg/kg), the “Time (Minutes) Before Induced Arrhythmia” value came out at 41 min.
As to `CC(CNC1=Nc2cccc3cccc1c23)Cn1ccnc1.O=C(O)/C=C/C(=O)O` (stereo not shown) [N-(3-(1H-imidazol-1-yl)-2-methylpropyl)benz(cd)indol-2-amine, fumarate], the “% Inhibition (Thromboxane Synthetase Enzyme Inhibition)” value in test [2] is 100%. In addition, the “Time (Minutes) Before Induced Arrhythmia” value in test [1] (IV dose 20 mg/kg) is 34.5 min.
As to `Cl.Cl.c1cc2c3c(cccc3c1)C(NCCCn1ccnc1)=N2` [N-(3-(1H-imidazol-1-yl)propyl)benz(cd)indol-2-amine, dihydrochloride], in test [2], the “% Inhibition (Thromboxane Synthetase Enzyme Inhibition)” value was 85%. For the same molecule, the “Avg. MABP in mm Hg (No. of Rats)” value in test [3] was found to be 87 mm Hg. Also, the “Time (Minutes) Before Induced Arrhythmia” value in test [1] (IV dose 10 mg/kg) turned out to be 48.5 min.
For `O=C(O)/C=C/C(=O)O.c1cc2c3c(cccc3c1)C(NCCCCn1ccnc1)=N2` [N-(4-(1H-imidazol-1-yl)butyl)benz(cd)indol-2-amine, fumarate], in that order: 100%, 106 mm Hg and 31 min.
As for `O=C(O)/C=C/C(=O)O.c1cc2c3c(cccc3c1)C(NCCCCCCCCCCn1ccnc1)=N2` [N-(10-(1H-imidazol-1-yl)decyl)benz(cd)indol-2-amine, fumarate], the inhibition at 100 µM in test [2] came out at 65%. The “Avg. MABP in mm Hg (No. of Rats)” value in test [3] was 124 mm Hg. In addition, the “Time (Minutes) Before Induced Arrhythmia” value in test [1] (IV dose 10 mg/kg) stood at 34.2 min.
In the case of `CC(=Cc1ccc(Cc2cccnc2)cc1)C(=O)O` [OKY-1581, 2-methyl-3-(4-(3-pyridinylmethyl)phenyl-2-propenoic acid, sodium salt, reference compound], in test [1] (setting [4]), the “activity” value is “inactive” and the “time before arrhythmia occurred” value was 24.3 ± 2.2 min.

As usually defined, the inhibition is the share of the control response that was lost under treatment.
